Laboratory results reported in patent US11612604B2, “Methods of treating cancer with PLK4 inhibitors” (LUDWIG INSTITUTE FOR CANCER RESEARCH LTD, priority 2017, dated 2023).

target: T1, PLK4 (Homo sapiens, UniProt O00444); test: Activity (IC50) of the Table 1 compounds as PLK4 inhibitors; format: biochemical; details: Table 1, IC50 class
T1 sequence (O00444 1-970): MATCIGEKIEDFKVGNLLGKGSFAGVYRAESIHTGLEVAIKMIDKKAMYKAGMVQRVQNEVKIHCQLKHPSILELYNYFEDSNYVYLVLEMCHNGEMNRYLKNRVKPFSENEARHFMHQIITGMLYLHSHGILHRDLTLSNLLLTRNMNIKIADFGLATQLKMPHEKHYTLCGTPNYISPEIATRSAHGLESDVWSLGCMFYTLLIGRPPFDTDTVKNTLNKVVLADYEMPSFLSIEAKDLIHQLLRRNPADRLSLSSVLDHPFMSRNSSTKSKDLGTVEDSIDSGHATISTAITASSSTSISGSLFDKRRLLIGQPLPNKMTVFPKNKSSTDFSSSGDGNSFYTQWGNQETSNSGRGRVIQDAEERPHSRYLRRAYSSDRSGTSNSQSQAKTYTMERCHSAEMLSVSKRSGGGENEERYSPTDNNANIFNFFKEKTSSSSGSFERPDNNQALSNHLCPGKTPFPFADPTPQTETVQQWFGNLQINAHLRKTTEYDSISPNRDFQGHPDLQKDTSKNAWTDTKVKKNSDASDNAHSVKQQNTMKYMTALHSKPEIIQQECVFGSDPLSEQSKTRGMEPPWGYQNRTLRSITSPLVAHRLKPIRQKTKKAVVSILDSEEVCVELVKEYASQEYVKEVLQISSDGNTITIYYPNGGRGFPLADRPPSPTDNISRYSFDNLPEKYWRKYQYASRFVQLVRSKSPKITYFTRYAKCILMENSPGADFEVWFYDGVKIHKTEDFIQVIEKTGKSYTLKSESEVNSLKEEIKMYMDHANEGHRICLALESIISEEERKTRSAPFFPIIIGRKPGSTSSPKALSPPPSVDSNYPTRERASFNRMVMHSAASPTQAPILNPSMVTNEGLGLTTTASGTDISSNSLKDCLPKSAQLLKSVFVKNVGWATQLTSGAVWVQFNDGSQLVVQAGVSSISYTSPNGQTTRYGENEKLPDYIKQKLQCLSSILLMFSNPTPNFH

SMILES | IC50
COCCNc1nc(Sc2ccc(NC(=O)C3CCCC3)cc2)nc(Nc2cc(C)[nH]n2)c1OC | < 100 nM
COc1c(Nc2cc(C)[nH]n2)nc(Sc2ccc(NC(=O)C3CCCC3)cc2)nc1N1CCN(C(C)=O)CC1 | < 100 nM
COCCN1CCN(c2nc(Sc3ccc(NC(=O)C4CCCC4)cc3)nc(Nc3cc(C)[nH]n3)c2OC)CC1 | < 100 nM
CCOc1c(Nc2cc(C)[nH]n2)nc(Sc2ccc(NC(=O)C3CC3)cc2)nc1N1CCOCC1 | < 100 nM
COc1c(Nc2cc(C)[nH]n2)nc(Sc2ccc(NC(=O)C3CCCC3)cc2)nc1N1CCN(C)CC1 | < 100 nM
COc1c(Nc2cc(C)[nH]n2)nc(Sc2ccc(NC(=O)C3CCCC3)cc2)nc1N1CCNCC1 | < 100 nM
COc1c(Nc2cc(C)[nH]n2)nc(Sc2ccc(NC(=O)C3CCCC3)cc2)nc1N1CCN(CCN(C)C)CC1 | < 100 nM
CCOc1c(Nc2cc(C)[nH]n2)nc(Sc2ccc(NC(=O)C3CC3)cc2)nc1N1CCNCC1 | < 100 nM
CCOc1c(Nc2cc(C)[nH]n2)nc(Sc2ccc(NC(=O)C3CC3)cc2)nc1N(CC)CC | < 100 nM
CCOc1c(Nc2cc(C)[nH]n2)nc(Sc2ccc(NC(=O)C3CC3)cc2)nc1N(C)CC | < 100 nM
CCOc1c(Nc2cc(C)[nH]n2)nc(Sc2ccc(NC(=O)C3CC3)cc2)nc1N(C)C | < 100 nM
COc1c(Nc2cc(C)[nH]n2)nc(Sc2ccc(NC(=O)C3CC3)cc2)nc1N1CCN(C2CCN(C)CC2)CC1 | < 100 nM
COc1c(Nc2cc(C)[nH]n2)nc(Sc2ccc(NC(=O)C3CC3)cc2)nc1N1CCC(C(=O)CN(C)C)CC1 | < 100 nM
COc1c(Nc2cc(C)[nH]n2)nc(Sc2ccc(NC(=O)C3CC3)cc2)nc1N1CCN(C(=O)CCN(C)C)CC1 | < 100 nM
COCC(=O)N1CCN(c2nc(Sc3ccc(NC(=O)C4CC4)cc3)nc(Nc3cc(C)[nH]n3)c2OC)CC1 | < 100 nM
CCS(=O)(=O)c1ccc(Sc2nc(Nc3cc(C)[nH]n3)c(OC)c(C3CCN(CCN(C)C)CC3)n2)cc1 | < 100 nM
CCS(=O)(=O)c1ccc(Sc2nc(Nc3cc(C)[nH]n3)c(OC)c(N3CCC(CCN4C5CCCC4CCC5)CC3)n2)cc1 | < 100 nM

SMILES | IC50
COc1c(Nc2cc(C)[nH]n2)nc(Sc2ccc(S(=O)(=O)Cc3ncc[nH]3)cc2)nc1N1CCN(CCN(C)C)CC1 | < 100 nM
CCS(=O)(=O)c1ccc(Sc2nc(C)c(OC)c(Nc3cc(C)[nH]n3)n2)cc1 | < 100 nM
COc1c(Nc2cc(C)[nH]n2)nc(Sc2ccc(S(=O)(=O)CCN(C)C)cc2)nc1N1CCN(CCN(C)C)CC1 | < 100 nM
COc1c(Nc2cc(C)[nH]n2)nc(Sc2ccc(S(=O)(=O)Cc3ncco3)cc2)nc1N1CCN(CCN(C)C)CC1 | < 100 nM
CCOc1c(Nc2cc(C)[nH]n2)nc(Sc2ccc(S(=O)(=O)CC)cc2)nc1N1CCN(CCN(C)C)CC1 | < 100 nM
Cc1cc(Nc2cc(N3CCN(CCN(C)C)CC3)nc(Sc3ccc(S(=O)(=O)Cc4ccccc4)cc3)n2)n[nH]1 | < 100 nM
COc1c(Nc2cc(C)[nH]n2)nc(Sc2ccc(S(=O)(=O)Cc3cccc([N+](=O)[O-])c3)cc2)nc1N1CCN(CCN(C)C)CC1 | < 100 nM
COc1c(Nc2cc(C)[nH]n2)nc(Sc2ccc(S(=O)(=O)Cc3ccc([N+](=O)[O-])cc3)cc2)nc1N1CCN(CCN(C)C)CC1 | < 100 nM
CCN(CC)c1nc(Sc2ccc(S(=O)(=O)CC)cc2)nc(Nc2cc(C)[nH]n2)c1OC | < 100 nM
CCOc1c(Nc2cc(C)[nH]n2)nc(Sc2ccc(S(=O)(=O)CC)cc2)nc1N1CCNCC1 | < 100 nM
COc1c(Nc2cc(C)[nH]n2)nc(Sc2ccc(S(=O)(=O)Cc3ccc(F)cc3F)cc2)nc1N1CCN(CCN(C)C)CC1 | < 100 nM
COc1c(Nc2cc(C)[nH]n2)nc(Sc2ccc(S(=O)(=O)Cc3cccc(OCc4ccccc4)c3)cc2)nc1N1CCN(CCN(C)C)CC1 | < 100 nM
CCOc1c(Nc2cc(C)[nH]n2)nc(Sc2ccc(S(=O)(=O)CC)cc2)nc1N1CCC(CCN(C)C)CC1 | < 100 nM
COc1c(Nc2cc(C)[nH]n2)nc(Sc2ccc(S(=O)(=O)Cc3cc(F)ccc3F)cc2)nc1N1CCN(CCN(C)C)CC1 | < 100 nM
COc1c(Nc2cc(C)[nH]n2)nc(Sc2ccc(S(=O)(=O)Cc3cccc(C(C)=O)c3)cc2)nc1N1CCN(CCN(C)C)CC1 | < 100 nM
COc1c(Nc2cc(C)[nH]n2)nc(Sc2ccc(S(=O)(=O)Cc3ccccc3)cc2F)nc1N1CCN(CCN(C)C)CC1 | < 100 nM

Next, values leading:

IC50 | SMILES
< 100 nM | COc1c(Nc2cc(C)[nH]n2)nc(Sc2ccc(S(=O)(=O)Cc3ccccc3)cc2)nc1C1CCN(CCN(C)C)CC1
< 100 nM | COc1c(C)nc(Sc2ccc(S(=O)(=O)Cc3ccccc3)cc2)nc1Nc1cc(C)[nH]n1
< 100 nM | COc1c(Nc2cc(C)[nH]n2)nc(Sc2ccc(S(=O)(=O)c3ccccc3)cc2)nc1N1CCN(CCN(C)C)CC1
< 100 nM | CCOc1c(Nc2cc(C)[nH]n2)nc(Sc2ccc(S(=O)(=O)Cc3ccccc3)cc2)nc1N1CCN(CCN(C)C)CC1
< 100 nM | COc1c(Nc2cc(C)[nH]n2)nc(Sc2ccc(S(=O)(=O)Cc3ccccc3)cc2)nc1N1CCOCC1
< 100 nM | COc1c(Nc2cc(C)[nH]n2)nc(Sc2ccc(S(=O)(=O)Cc3ccccc3)cc2)nc1N(C)C
< 100 nM | COc1c(Nc2cc(C)[nH]n2)nc(Sc2ccc(S(=O)(=O)Cc3ccccc3)cc2)nc1N1CCCCC1
< 100 nM | COc1c(Nc2cc(C)[nH]n2)nc(Sc2ccc(S(=O)(=O)Cc3ccccc3)cc2)nc1N1CCN(CCN2CCN(C)CC2)CC1
< 100 nM | COc1c(Nc2cc(C)[nH]n2)nc(Sc2ccc(S(=O)(=O)Cc3ccccc3)cc2)nc1N1CCN(CCN2C3CCCC2CC3)CC1
< 100 nM | Cc1cc(Nc2nc(Sc3ccc(S(=O)(=O)Cc4ccccc4)cc3)nc(N3CCN(CCN(C)C)CC3)c2C)n[nH]1
< 100 nM | COc1c(Nc2cc[nH]n2)nc(Sc2ccc(S(=O)(=O)Cc3ccccc3)cc2)nc1N1CCN(CCN(C)C)CC1
< 100 nM | CCS(=O)(=O)c1ccc(Sc2nc(Nc3cc(C)[nH]n3)c(OC)c(N3CCCCC3)n2)cc1
< 100 nM | CCS(=O)(=O)c1ccc(Sc2nc(Nc3cc(C)[nH]n3)c(OC)c(N3CCOCC3)n2)cc1
< 100 nM | CCN(CC)c1nc(Sc2ccc(S(=O)(=O)Cc3ccccc3)cc2)nc(Nc2cc(C)[nH]n2)c1OC
< 100 nM | CCOc1c(Nc2cc(C)[nH]n2)nc(Sc2ccc(S(=O)(=O)Cc3ccccc3)cc2)nc1N1CCNCC1
< 100 nM | COc1c(Nc2cc(C)[nH]n2)nc(Sc2ccc(S(=O)(=O)Cc3ccccc3F)cc2)nc1N1CCN(CCN(C)C)CC1
< 100 nM | COc1c(Nc2cc(C)[nH]n2)nc(Sc2ccc(S(=O)(=O)Cc3ccccc3)cc2)nc1N1CCN(CCN(C)c2ccccc2)CC1
< 100 nM | CCCOc1c(Nc2cc(C)[nH]n2)nc(Sc2ccc(S(=O)(=O)Cc3ccccc3)cc2)nc1N1CCN(CCN(C)C)CC1
< 100 nM | Cc1cc(Nc2nc(Sc3ccc(S(=O)(=O)Cc4ccccc4)cc3)nc(N3CCN(CCN(C)C)CC3)c2OC(C)C)n[nH]1
< 100 nM | COc1c(Nc2cc(C)[nH]n2)nc(Sc2ccc(S(=O)(=O)Cc3cccc(O)c3)cc2)nc1N1CCN(CCN(C)C)CC1
< 100 nM | CCOc1c(Nc2cc(C)[nH]n2)nc(Sc2ccc(S(=O)(=O)Cc3ccccc3)cc2)nc1N1CCN(CCN2C3CCCC2CC3)CC1
< 100 nM | COc1c(Nc2cc(C)[nH]n2)nc(Sc2ccc(S(=O)(=O)Cc3cccc(-c4ccccc4)c3)cc2)nc1N1CCN(CCN(C)C)CC1
< 100 nM | COc1c(Nc2cc(C)[nH]n2)nc(Sc2ccc(S(=O)(=O)Cc3cccc([N+](=O)[O-])c3)cc2)nc1N1CCOCC1
< 100 nM | COc1c(Nc2cc(C)[nH]n2)nc(Sc2ccc(S(=O)(=O)Cc3ccccc3)cc2)nc1N1CCN(Cc2ccccc2)CC1
